Measured values from patent US20010053758A1, “Methods and compositions for the treatment and prevention of lung disease” (priority 1999, published 2001).

Assays:
[1] = system: alveolus formation (septation) in rat lung; experiment: Alveolus formation in newborn rat pups injected intraperitoneally daily (lung histology and morphometry); assay type: in vivo, Sprague-Dawley rat
Text: The expression of the RARβ receptor has been associated in certain cases with diminished cell replication. Following the initial injection, the rat pups were subjected to identical daily injections until day 13. A set of rat pups were sacrificed at day 4 and at […] by anesthesia with phenobarbitol sodium and scission of the abdominal aorta. Following sacrifice, rat lungs were fixed and histological sections prepared essentially as described in Massaro et al., Am. J. Physiol. 270: L305 (1996), incorporated by reference herein. The histological sections were viewed and photographs taken under light microscopy.
The differences in alveolar dimensions between treated and untreated rat pups were so pronounced, they were quantitated by measuring the distance between alveolar walls (Lm) and the surface-to-volume ratio (S/V) of the gas-exchange structures (septa). The Lm in cottonseed oil-treated rats was 80 μm±2.8 μm (N=4) compared to 110 μm±7.3 μm (N=3) in RARβ agonist-treated rats (N=3; P=0.03 by Mann Whitney nonparametric analysis). The S/V was 504 μm^−1±18 μm^−1 (N=4) in cottonseed oil-treated rats compared to 365 μm^−1±23 μm^−1 (N=3) in RARβ agonist-treated rats (P=0.03).

RARβ = target: T1, RARβ (Homo sapiens, UniProt P10826); experiment: RAR receptor activity as stated for the retinoid ligand; conditions: ligand specific to RAR receptors and not to RXR receptors
T1 sequence (P10826 1-455): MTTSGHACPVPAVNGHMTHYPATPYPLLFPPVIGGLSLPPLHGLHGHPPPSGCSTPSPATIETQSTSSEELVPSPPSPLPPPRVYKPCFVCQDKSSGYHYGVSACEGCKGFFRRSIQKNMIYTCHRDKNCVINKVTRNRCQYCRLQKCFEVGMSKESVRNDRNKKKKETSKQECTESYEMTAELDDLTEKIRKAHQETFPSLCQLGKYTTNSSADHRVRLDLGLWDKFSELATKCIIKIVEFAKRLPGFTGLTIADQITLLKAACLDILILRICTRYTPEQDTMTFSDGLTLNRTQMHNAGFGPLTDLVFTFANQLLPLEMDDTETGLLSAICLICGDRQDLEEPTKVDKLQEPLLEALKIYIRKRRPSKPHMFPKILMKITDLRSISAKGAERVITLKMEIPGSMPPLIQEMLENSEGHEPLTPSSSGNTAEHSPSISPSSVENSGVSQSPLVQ
Text: Likewise, methods of screening candidate compounds for Specific RAR modulating activity is routine and well-known in the art. For example, U.S. Pat. No. 5,455,265, incorporated by reference herein, describes a chimeric receptor transactivation assay which tests for RAR-agonist activity in the RAR-α, RAR-β, RAR-γ, RXR-α receptor subtypes. Briefly, this assay employs chimeric proteins containing an RAR ligand-binding domain and a heterologous polypeptide segment having the ability to bind to a response element (RE), in turn facilitating transcription of a specific, measurable target gene, such as chloramphenicol acetyltransferase (CAT). Only an agonist of the given RAR isotype whose ligand binding domain comprises part of the chimeric protein will permit the activation of CAT transcription and expression. […] For example, those ligands able to stimulate CAT synthesis when used in combination with chimeric proteins having RAR binding domains, but not those having RXR ligand binding domains, will be RAR specific agonists.

[2] = system: elastase-induced destruction of alveolar walls; conditions: elastase-treated rats; cited from earlier work
[3] = system: alveolus formation in newborn rat lung; conditions: newborn rats; cited from earlier work

Row | receptor activity (RARβ) | Structure (SMILES) | histological sections: alveolar size and degree of septation ([1]; age 14 days, treated daily from age 3 through 13 days, versus cottonseed oil alone (FIGS. 1A and 1B)) | distance between alveolar walls (Lm) ([1]; rat pups, 500 micrograms per kg i.p. daily from age 3 to 13 days, age 14 days, N=3, cottonseed oil control 80 μm±2.8 μm, P=0.03) [μm] | surface-to-volume ratio (S/V) of the gas-exchange structures ([1]; rat pups, 500 micrograms per kg i.p. daily from age 3 to 13 days, N=3, cottonseed oil control 504 μm^−1±18 μm^−1, P=0.03) [μm^−1] | surface area ([1]; rat pups, 500 micrograms per kg i.p. daily from age 3 to 13 days, cottonseed oil control 634 cm^2 ±9 cm^2, P=0.03) [cm^2] | Lung volume ([1]; treated rats versus cottonseed oil-treated rats) | effect on elastase-induced alveolar wall destruction [2] | effect on number of alveoli [3]
1 | RARβ agonist activity | CC1(C)CC=C(c2cccs2)c2cc(C#Cc3ccc(C(=O)O)cc3)ccc21 [AGN 193174] | alveoli were larger, and the degree of sepatation less | 110 | 365 | 492 | the same in both rat groups | – | –
2 | – | CC1=C(/C=C/C(C)=C/C=C/C(C)=C/C(=O)O)C(C)(C)CCC1 [all-trans-retinoic acid] | – | – | – | – | – | appeared to reverse this destruction | induced the formation of an increased number of alveoli in rats without enlarging the lung
